Experiment [1] addresses Serine/threonine-protein kinase PAK 6 (Homo sapiens, UniProt Q9NQU5).
Experiment [2] deals with Dual specificity testis-specific protein kinase 2 (Homo sapiens, UniProt Q96S53).
Experiment [3] deals with DNA topoisomerase 2-alpha (Homo sapiens, UniProt P11388).
Experiment [4] addresses Dual specificity testis-specific protein kinase 1 (Homo sapiens, UniProt Q15569).
Experiment [5] deals with Serine/threonine-protein kinase 24 (Homo sapiens, UniProt Q9Y6E0).
Experiment [6] deals with Uncharacterized aarF domain-containing protein kinase 5 (Homo sapiens, UniProt Q3MIX3).
Experiment [7] concerns the target T1, Dual specificity protein kinase TTK (Homo sapiens, UniProt P33981).
T1 sequence (P33981 whole entry): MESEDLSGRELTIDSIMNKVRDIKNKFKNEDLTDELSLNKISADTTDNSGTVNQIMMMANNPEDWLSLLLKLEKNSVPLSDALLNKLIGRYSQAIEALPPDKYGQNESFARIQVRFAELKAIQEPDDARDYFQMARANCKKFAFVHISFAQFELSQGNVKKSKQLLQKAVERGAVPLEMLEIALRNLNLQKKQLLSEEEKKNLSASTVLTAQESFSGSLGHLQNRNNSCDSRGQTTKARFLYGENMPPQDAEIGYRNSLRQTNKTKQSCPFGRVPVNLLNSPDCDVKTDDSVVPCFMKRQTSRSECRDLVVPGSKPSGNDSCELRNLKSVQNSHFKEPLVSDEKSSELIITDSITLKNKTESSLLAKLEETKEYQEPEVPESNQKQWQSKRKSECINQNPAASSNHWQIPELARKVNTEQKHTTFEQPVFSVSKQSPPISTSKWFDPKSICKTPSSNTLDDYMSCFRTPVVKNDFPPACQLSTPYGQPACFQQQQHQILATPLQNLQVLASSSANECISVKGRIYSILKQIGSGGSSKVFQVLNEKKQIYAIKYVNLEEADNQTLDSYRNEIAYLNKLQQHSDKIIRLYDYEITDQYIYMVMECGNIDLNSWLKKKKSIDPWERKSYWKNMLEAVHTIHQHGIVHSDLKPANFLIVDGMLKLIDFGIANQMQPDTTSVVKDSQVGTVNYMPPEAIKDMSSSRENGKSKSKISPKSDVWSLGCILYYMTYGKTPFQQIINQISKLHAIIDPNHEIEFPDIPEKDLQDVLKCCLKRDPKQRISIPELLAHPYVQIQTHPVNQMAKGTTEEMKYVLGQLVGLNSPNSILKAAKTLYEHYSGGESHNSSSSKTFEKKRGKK

For experiment [8], the target named is PAS domain-containing serine/threonine-protein kinase (Homo sapiens, UniProt Q96RG2).
The target of experiment [9] is T2, ATP-dependent RNA helicase DHX30 (Homo sapiens, UniProt Q7L2E3).
T2 sequence (Q7L2E3 whole entry): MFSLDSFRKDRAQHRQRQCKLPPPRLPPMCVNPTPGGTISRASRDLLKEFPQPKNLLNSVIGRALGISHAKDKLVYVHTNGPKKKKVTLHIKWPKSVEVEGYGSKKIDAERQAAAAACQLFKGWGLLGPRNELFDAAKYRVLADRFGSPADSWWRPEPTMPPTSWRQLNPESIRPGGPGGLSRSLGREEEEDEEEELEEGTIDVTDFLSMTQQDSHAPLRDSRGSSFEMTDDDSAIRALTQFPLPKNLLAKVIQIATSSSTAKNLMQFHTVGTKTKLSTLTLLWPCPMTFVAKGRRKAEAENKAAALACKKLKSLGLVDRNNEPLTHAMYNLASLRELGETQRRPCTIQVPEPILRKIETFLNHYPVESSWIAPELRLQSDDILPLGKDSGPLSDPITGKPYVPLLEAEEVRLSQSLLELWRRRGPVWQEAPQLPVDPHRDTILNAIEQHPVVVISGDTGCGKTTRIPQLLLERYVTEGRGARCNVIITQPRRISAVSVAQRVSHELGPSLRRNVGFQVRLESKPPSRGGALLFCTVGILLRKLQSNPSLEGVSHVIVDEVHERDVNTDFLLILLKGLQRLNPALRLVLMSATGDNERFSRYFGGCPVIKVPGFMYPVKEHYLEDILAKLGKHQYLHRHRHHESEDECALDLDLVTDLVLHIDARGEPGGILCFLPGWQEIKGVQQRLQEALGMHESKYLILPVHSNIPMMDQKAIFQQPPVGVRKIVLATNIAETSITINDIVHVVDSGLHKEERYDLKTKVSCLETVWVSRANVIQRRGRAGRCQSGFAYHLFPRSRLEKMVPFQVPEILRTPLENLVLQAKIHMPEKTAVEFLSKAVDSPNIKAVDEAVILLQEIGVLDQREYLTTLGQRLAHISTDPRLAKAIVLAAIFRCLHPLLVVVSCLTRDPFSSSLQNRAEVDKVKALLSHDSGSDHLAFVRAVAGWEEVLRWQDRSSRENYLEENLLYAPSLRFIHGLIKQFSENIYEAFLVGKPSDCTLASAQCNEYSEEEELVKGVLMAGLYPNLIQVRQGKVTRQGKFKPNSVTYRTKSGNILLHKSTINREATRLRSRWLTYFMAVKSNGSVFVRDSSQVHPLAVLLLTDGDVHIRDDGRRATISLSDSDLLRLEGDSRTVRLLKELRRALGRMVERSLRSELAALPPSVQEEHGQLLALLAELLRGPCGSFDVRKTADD

Experiment [10] deals with G protein-coupled receptor kinase 6 (Homo sapiens, UniProt P43250).
The next experiment deals with Myosin-10 (Homo sapiens, UniProt P35580).
Experiment [11] deals with Proto-oncogene tyrosine-protein kinase receptor Ret (Homo sapiens, UniProt P07949).
Experiment [12] concerns the target Hepatocyte growth factor receptor (Homo sapiens, UniProt P08581).
Experiment [13] addresses Dual specificity protein kinase CLK4 (Homo sapiens, UniProt Q9HAZ1).

SMILES strings stand for the structures. Calls of active or inactive are those of the source. Some results are limits rather than exact numbers.
Note: in the data inactive means no Kd found up to 30 µM.

Chain of PAS domain-containing serine/threonine-protein kinase (Q96RG2 whole entry, the tested form may be a part): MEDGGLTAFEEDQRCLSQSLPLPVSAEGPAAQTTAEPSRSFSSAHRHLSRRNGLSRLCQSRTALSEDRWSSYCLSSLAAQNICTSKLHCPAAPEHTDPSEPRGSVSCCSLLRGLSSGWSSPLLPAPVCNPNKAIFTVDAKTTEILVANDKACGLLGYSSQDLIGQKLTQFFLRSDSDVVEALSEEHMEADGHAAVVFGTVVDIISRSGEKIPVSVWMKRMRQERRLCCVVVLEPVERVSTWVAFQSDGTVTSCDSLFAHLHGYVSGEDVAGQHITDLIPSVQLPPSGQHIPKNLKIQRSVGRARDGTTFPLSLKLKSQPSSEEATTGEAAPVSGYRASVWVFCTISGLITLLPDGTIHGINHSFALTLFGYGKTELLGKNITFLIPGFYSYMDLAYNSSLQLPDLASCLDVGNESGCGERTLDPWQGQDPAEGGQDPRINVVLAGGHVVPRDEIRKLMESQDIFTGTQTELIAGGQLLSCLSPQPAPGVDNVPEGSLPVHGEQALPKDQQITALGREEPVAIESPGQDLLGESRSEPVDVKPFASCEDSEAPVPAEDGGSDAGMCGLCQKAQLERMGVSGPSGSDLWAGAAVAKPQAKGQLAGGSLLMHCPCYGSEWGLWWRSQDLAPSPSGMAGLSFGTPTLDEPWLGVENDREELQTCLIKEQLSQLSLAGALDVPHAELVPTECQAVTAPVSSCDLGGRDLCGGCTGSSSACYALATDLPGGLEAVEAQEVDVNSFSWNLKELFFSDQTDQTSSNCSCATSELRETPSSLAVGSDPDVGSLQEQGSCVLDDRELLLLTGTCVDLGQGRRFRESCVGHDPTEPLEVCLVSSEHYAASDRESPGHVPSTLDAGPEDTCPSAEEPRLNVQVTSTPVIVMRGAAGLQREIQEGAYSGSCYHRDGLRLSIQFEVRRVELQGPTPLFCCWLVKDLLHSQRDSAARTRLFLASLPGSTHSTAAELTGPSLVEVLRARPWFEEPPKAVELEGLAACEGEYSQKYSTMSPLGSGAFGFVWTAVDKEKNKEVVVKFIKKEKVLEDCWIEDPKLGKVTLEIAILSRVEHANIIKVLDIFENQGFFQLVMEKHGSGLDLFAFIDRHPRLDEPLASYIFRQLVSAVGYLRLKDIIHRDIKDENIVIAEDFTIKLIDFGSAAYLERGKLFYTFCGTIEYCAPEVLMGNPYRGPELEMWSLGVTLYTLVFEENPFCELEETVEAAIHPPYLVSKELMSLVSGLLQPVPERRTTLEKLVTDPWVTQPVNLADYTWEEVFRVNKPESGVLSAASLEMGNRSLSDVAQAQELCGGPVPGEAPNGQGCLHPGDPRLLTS
Chain of G protein-coupled receptor kinase 6 (P43250 whole entry): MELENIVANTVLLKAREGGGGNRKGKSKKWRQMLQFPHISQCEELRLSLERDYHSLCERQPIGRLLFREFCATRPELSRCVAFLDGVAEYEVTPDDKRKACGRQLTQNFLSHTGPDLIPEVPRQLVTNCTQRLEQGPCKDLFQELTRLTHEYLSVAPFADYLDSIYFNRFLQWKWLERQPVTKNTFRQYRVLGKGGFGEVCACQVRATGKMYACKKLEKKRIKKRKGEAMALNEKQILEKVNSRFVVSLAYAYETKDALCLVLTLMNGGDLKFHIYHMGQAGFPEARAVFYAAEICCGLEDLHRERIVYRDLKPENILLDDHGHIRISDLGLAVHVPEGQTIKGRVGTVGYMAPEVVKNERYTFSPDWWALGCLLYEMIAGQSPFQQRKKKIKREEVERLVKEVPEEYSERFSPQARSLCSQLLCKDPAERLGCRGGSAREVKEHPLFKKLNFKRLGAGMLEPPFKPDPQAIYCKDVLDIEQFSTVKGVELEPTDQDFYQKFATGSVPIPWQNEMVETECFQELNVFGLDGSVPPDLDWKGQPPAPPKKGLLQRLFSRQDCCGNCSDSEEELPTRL
Chain of Proto-oncogene tyrosine-protein kinase receptor Ret (P07949 whole entry): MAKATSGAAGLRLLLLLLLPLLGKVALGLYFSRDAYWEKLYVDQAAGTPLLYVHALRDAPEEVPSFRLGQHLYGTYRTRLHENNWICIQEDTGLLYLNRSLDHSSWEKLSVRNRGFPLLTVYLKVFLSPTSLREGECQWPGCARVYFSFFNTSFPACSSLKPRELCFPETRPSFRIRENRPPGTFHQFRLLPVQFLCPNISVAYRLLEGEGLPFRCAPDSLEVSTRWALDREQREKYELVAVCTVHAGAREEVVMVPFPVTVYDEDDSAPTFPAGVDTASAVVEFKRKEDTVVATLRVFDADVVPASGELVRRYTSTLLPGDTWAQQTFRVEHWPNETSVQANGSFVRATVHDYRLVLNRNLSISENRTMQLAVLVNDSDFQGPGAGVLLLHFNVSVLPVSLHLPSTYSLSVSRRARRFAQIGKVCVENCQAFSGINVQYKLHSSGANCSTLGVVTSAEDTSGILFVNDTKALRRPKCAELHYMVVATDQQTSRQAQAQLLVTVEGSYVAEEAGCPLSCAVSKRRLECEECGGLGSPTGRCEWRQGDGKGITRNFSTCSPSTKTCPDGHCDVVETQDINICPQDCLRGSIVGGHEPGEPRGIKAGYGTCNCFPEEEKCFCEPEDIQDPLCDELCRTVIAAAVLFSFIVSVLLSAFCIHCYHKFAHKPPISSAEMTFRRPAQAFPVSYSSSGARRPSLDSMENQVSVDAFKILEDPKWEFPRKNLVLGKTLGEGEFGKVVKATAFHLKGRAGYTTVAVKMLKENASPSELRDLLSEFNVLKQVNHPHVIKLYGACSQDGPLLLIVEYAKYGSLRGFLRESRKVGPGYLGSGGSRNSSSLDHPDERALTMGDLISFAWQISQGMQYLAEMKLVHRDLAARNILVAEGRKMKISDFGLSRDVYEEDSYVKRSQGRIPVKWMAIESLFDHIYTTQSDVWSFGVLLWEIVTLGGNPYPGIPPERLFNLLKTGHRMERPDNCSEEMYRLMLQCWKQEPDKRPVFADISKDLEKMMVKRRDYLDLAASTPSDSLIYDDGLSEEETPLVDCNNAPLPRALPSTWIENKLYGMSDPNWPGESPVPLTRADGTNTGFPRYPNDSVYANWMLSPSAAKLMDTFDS
Chain of Dual specificity testis-specific protein kinase 1 (Q15569 whole entry): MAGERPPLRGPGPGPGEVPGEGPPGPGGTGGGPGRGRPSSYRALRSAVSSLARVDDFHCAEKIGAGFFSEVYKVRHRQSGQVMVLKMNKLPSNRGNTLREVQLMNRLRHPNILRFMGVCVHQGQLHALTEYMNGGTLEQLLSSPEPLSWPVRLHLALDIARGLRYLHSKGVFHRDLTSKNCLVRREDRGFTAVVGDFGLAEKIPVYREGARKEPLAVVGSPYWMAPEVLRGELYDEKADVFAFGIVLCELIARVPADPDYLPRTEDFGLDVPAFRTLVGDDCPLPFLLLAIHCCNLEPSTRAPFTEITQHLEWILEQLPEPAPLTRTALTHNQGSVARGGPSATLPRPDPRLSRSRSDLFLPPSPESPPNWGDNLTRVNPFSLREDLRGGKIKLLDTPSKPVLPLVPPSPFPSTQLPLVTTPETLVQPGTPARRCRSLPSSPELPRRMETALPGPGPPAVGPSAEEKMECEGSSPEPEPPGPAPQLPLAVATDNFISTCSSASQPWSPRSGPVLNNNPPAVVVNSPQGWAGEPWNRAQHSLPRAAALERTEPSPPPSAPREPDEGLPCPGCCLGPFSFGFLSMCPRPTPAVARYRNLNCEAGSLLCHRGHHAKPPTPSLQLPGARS
Chain of Dual specificity protein kinase CLK4 (Q9HAZ1 whole entry): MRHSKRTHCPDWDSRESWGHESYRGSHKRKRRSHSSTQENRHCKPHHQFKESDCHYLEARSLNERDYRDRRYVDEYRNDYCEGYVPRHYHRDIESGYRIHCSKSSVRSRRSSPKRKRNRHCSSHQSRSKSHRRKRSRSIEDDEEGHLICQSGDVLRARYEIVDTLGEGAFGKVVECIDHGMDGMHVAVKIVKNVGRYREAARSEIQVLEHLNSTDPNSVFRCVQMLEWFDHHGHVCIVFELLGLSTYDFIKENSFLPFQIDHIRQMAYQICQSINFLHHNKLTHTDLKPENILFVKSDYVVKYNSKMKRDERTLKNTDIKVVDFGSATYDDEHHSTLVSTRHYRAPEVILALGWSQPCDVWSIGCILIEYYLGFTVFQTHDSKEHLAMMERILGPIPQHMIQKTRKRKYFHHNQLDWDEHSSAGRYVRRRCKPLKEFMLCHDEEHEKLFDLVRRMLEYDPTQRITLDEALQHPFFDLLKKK
Chain of Dual specificity testis-specific protein kinase 2 (Q96S53 whole entry): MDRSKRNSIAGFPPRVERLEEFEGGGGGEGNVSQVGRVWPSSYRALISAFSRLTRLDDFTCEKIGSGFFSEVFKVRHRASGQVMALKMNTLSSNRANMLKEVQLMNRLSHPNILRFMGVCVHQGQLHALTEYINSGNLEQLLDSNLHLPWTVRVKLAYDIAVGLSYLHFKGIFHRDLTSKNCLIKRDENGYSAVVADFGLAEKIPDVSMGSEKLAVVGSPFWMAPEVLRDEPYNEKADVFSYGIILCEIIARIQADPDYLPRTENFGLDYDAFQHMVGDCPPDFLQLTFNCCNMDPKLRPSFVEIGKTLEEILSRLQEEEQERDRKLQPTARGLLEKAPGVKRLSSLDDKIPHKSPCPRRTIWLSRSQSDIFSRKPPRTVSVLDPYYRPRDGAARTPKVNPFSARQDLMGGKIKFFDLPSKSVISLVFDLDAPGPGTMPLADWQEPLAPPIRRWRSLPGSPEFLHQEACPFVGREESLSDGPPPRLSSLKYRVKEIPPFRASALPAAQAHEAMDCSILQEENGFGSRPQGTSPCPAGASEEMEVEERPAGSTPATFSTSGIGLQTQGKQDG

The term Kd denotes the free concentration of one partner at which half of the binding sites on the other are occupied at equilibrium, for simple one-to-one binding. For the molecule `CCN(CCCOc1ccc2c(Nc3cc(CC(=O)Nc4cccc(F)c4)n[nH]3)ncnc2c1)CCOP(=O)(O)O` [BARASERTIB], the Kd in [1], in experiment [2], in experiment [3], in experiment [4] and in experiment [5] was > 30 µM (inactive) throughout.
With `C=CCn1c(=O)c2cnc(Nc3ccc(N4CCN(C)CC4)cc3)nc2n1-c1cccc(C(C)(C)O)n1` [ADAVOSERTIB], the Kd in [6], in experiment [7], in experiment [8], in experiment [1], in [2] and in [3] was > 30 µM (inactive) each time. The Kd in experiment [4] and in experiment [9] was > 30 µM (inactive) in each case.
`COc1cc2c(N3CCN(C(=O)Nc4ccc(OC(C)C)cc4)CC3)ncnc2cc1OCCCN1CCCCC1` [TANDUTINIB]: the Kd (in [8]; in experiment [2]; in experiment [10]; on Myosin-10) was > 30 µM (inactive) each time.
For the molecule `O=c1[nH]c([C@@H]2CCCN2)nc2c1oc1ccc(Cl)cc12`, the Kd in experiment [11], in [3], in experiment [12], in experiment [9] and in experiment [5] was > 30 µM (inactive) throughout.
For the molecule `Cc1cc(C(=O)Nc2cc(Oc3ccc4nc(NC(=O)C5CC5)cn4n3)ccc2C)n(C)n1` [TAK-593], the Kd in experiment [6], in [2], in experiment [13], in experiment [3], in experiment [4] and in [12] was > 30 µM (inactive) each time. Further, the Kd in [10], in experiment [9] and in [5] was > 30 µM (inactive) each time.
Consider `COc1cc2ncnc3c2cc1OCCCCCN(C)Cc1ccc(Br)cc1N3` [JNJ-26483327], for which the Kd was > 30 µM (inactive) in [6]; > 30 µM (inactive) in experiment [2]; 2.42 µM (active) in experiment [11]; > 30 µM (inactive) in [3]; > 30 µM (inactive) in experiment [4]; > 30 µM (inactive) in [12]. Besides, the Kd in [9] was > 30 µM (inactive).
As to `FC(F)(F)c1ccc(CNc2ccc(Cc3c[nH]c4ncc(Cl)cc34)cn2)cn1` [PEXIDARTINIB], the Kd in [7], in experiment [8], in experiment [11], in experiment [13], in [3] and in [4] was > 30 µM (inactive) each time. Moreover, the Kd (in experiment [12]; in [10]; in [9]; on Myosin-10; in experiment [5]) was > 30 µM (inactive) throughout.
Regarding `CC[C@@](C)(Nc1ccnc(-c2c[nH]c3ncccc23)n1)C(=O)NCC(F)(F)F` [DECERNOTINIB], the Kd in [8] is > 30 µM (inactive); in experiment [11], > 30 µM (inactive); in experiment [3] it was 0.064 µM; in experiment [4], > 30 µM (inactive); in experiment [12], 0.094 µM; in experiment [9], > 30 µM (inactive). Further, the Kd (at Myosin-10; in experiment [5]) was > 30 µM (inactive) each time.
For `CNC(=O)c1cc(COc2nnc(Nc3ccc(Cl)cc3)c3ccoc23)ccn1` [TELATINIB], the Kd in experiment [7], in [8], in experiment [1], in [2], in experiment [11] and in experiment [3] was > 30 µM (inactive) each time. The Kd in experiment [4], in experiment [12], in experiment [10] and in experiment [5] was > 30 µM (inactive) throughout.
As for `COc1cccc(Nc2ncnn3ccc(CN4CC[C@@H](N)[C@H](O)C4)c23)c1` [BMS-690514], the Kd in [7] is > 30 µM (inactive); in experiment [2] it was > 30 µM (inactive); in experiment [11], 0.034 µM (active); in [4], > 30 µM (inactive); in experiment [5], > 30 µM (inactive).
Turning to `C[C@@]1(C(=O)Nc2ccc(F)nc2)CCCN1c1nc(Nc2cc(C3CC3)n[nH]2)c2cccn2n1` [BMS-754807], the Kd in experiment [2], in [3] and in experiment [10] was > 30 µM (inactive) in each case.
Take `C=CC(=O)Nc1cccc(Nc2nc(Nc3ccc(N4CCN(C(C)=O)CC4)cc3OC)ncc2C(F)(F)F)c1` [ROCILETINIB]: the Kd (in experiment [6]; in experiment [11]; in experiment [13]; in experiment [3]; in experiment [4]; at Myosin-10) was > 30 µM (inactive) throughout.
In the case of `CCc1nc(C(N)=O)c(Nc2ccc(N3CCC(N4CCN(C)CC4)CC3)c(OC)c2)nc1NC1CCOCC1` [GILTERITINIB], the Kd in [7] was > 30 µM (inactive); in experiment [11], 0.05 µM (active); in experiment [13], > 30 µM (inactive); in experiment [3], > 30 µM (inactive); in experiment [4], > 30 µM (inactive); in [9] it was > 30 µM (inactive). In [5], binding was put at a Kd of 0.23 µM.
On to `Cc1c(NC(=O)OC[C@@H]2COCCN2)cn2ncnc(Nc3ccc4c(cnn4Cc4cccc(F)c4)c3)c12` [AC-480], for which the Kd in experiment [7], in [8], in [1], in experiment [11], in [4] and in experiment [12] was > 30 µM (inactive) throughout. For the same molecule, the Kd (on Myosin-10; in experiment [5]) was > 30 µM (inactive) throughout.

The values above are taken from ChEMBL document CHEMBL3991601, “The target landscape of clinical kinase drugs” (Science, 2017).
